According to US20050171116A1, “Enhancing the efficacy of tubercular drugs” (priority 2004, published 2005):

Legend:
Type in all cases: cell-based, Mycobacterium Tuberculosis
Conditions in all cases: LJ medium, in vitro
[1] = system: Rifampicin-resistant strains of MTB
[2] = system: Isoniazid-Resistant strains of MTB
[3] = system: Multi-Drug-Resistant strains of MTB

Measured: antibacterial efficacy

Cc1c(C)c2c(c(C)c1O)CC[C@@](C)(CCC[C@H](C)CCC[C@H](C)CCCC(C)C)O2 [Factor Alpha tx, α-tocopherol]
effective: all assays above
